ChEMBL document CHEMBL1149985, “Novel synthesis of nucleoside 5-polyphosphates” (Bioorg Med Chem Lett, 1996)

These compounds were tested on Dictyostelium discoideum (assay: Compound was evaluated for nucleoside diphosphate kinase (NDP-kinase) activity relative to Adenosine triphosphate (100)).
Design: concentration or dose not given beside the values

Row | Compound | Relative activity [%]
1 | O=P(O)(O)OP(=O)(O)OP(=O)(O)OC[C@H]1O[C@@H](n2cnc3c(Cl)ncnc32)[C@H](O)[C@@H]1O | 110
2 | Nc1ncnc2c1nc(Cl)n2[C@@H]1O[C@H](COP(=O)(O)OP(=O)(O)OP(=O)(O)O)[C@@H](O)[C@H]1O | 140
3 | O=P(O)(O)OP(=O)(O)OP(=O)(O)OC[C@H]1O[C@@H](n2cnc3cc(Cl)c(Cl)cc32)[C@H](O)[C@@H]1O | 145
4 | Nc1ncnc2c1ccn2[C@@H]1O[C@H](COP(=O)(O)OP(=O)(O)OP(=O)(O)O)[C@@H](O)[C@H]1O | 155
5 | O=P(O)(O)OP(=O)(O)OP(=O)(O)OC[C@H]1O[C@@H](n2cnc3cncnc32)[C@H](O)[C@@H]1O | 130

These compounds were tested on Dictyostelium discoideum (assay: Compound was evaluated for nucleoside diphosphate kinase (NDP-kinase) activity).

Row | Compound | Relative activity [%]
6 | Nc1ncnc2c1ncn2[C@@H]1O[C@H](COP(=O)(O)OP(=O)(O)OP(=O)(O)O)[C@@H](O)[C@H]1O | 100
